Measured values as given in US4617290A, “Synergistine derivatives, their preparation and pharmaceutical compositions containing them” (Rhone-Poulenc Sante, priority 1983, dated 1986).

Format: physicochemical
Experimental: The new compounds of the invention have the considerable advantage of being soluble or capable of being solubilized in water, either in the form of parent substances or in the form of salts, at therapeutically useful levels, while at the same time retaining the general spectrum of antibacterial activity of synergistines. They are especially active in vitro against Staphylococcus aureus Smith at concentrations of between 8 and 125 μg/ml. A 10% aqueous solution of 5γ-deoxy-5γ-(3-dimethylaminopropyl)aminopristinamycin IA (product A) in the form of the hydrochloride is obtained with: […]

5γ-[N-(carboxymethyl)-methylamino]-5γ-deoxypristinamycin IA [product K]
concentration of aqueous solution obtained: 2%
